In patent US20240228474A1, “ANTIBACTERIAL COMPOUND” (DISCUVA LIMITED, priority 2021, published 2024):

Legend:
[1] = tested on: Proteus mirabilis (DSM 4479); test: MIC by broth microdilution (CLSI); assay type: cell-based; details: DSM4479
Protocol: Minimum Inhibitory Concentrations (MICs) versus Escherichia coli (NCTC 13441) and Klebsiella pneumoniae (NCTC 13438) (planktonic bacteria) were determined by the broth microdilution procedure in line with the guidelines of the Clinical and Laboratory Standards Institute (Clinical and Laboratory Standards Institute. Methods for Dilution Antimicrobial Susceptibility Tests for Bacteria That Grow Aerobically, Approved Standard-Eleventh Edition, CLSI document M07, 11 Jan. 2018). The broth dilution method involved a two-fold serial dilution of compounds in 96-well microtitre plates, giving a final concentration range of 0.39-200 μM and a maximum final concentration of 2% DMSO. The bacterial strains tested were Escherichia coli (NCTC 13441) and Klebsiella pneumoniae (NCTC 13438). Strains were grown in cation-adjusted Müller-Hinton broth or on Luria Bertani agar at 37° C. in an ambient atmosphere. The MIC (μM) was determined as the lowest concentration of compound that inhibits growth following a 20-24 hour incubation period.
Minimum Inhibitory Concentrations (MICs) versus Proteus mirabilis (DSM 4479) were determined for compound (I) and comparative compounds (II) and (III) using the methodology outlined above.

[2] = Volume of distribution (Vss) from mouse plasma profiles; assay type: in vivo; details: mice, 5 mg/kg IV bolus, 2 compartment model
Protocol: The volume of distribution (Vss) of compound (I) and comparative compounds (II) and (III) was determined from analysis of plasma concentration time profiles obtained from rodent species (mice), following 5 mg/kg IV bolus administration respectively. The volume of distribution was obtained by analysing the rodent plasma profiles for compound (I) and comparative compounds (II) and (III) using a 2 compartment IV bolus model in PK Solver (Excel). The volume of distribution data for compound (I) and comparative compound (II) was collected in separate experiments carried out on different days, and compared in Table 6.

[3] = tested on: Klebsiella pneumoniae ATCC 43816; test: Murine respiratory infection proof-of-concept study, IV bolus; assay type: in vivo; details: 26 h from initial infection
Protocol: Compound (I) and comparative compound (III) were evaluated in proof-of-concept studies in murine models for the treatment of a respiratory infection with Gram-negative bacteria of the order Enterobacterales, a bacteraemia or bloodstream infection with Gram-negative bacteria of the order Enterobacterales, and a urinary tract infection with Gram-negative bacteria of the order Enterobacterales. Each dot, triangle or square indicator represents a single mouse. LOD refers to the limit of detection of the bacteria. […] Each of the proof-of-concept studies was carried out separately. By vehicle is meant pharmaceutically acceptable carrier or excipient. For the proof-of-concept study for the treatment of a respiratory infection caused or exacerbated by Gram-negative bacteria of the order Enterobacterales, CD-1 mice were infected with Klebsiella pneumoniae ATCC 43816. Two hours after infection (‘pre-treatment’ in FIG. 2), a vehicle (20% hydroxypropyl β cyclodextrin) containing no compound (I) or comparative compound (III), or a vehicle (20% hydroxypropyl β cyclodextrin) containing compound (I) or comparative compound (III), was administered by IV bolus at 20 mg/kg, TID (8 hrs apart), over one day.

[4] = tested on: E. coli UT189; test: Murine urinary tract infection proof-of-concept study, IV bolus; assay type: in vivo; details: IV bolus 20 mg/kg TID over 3 days, 96 h after initial infection
Protocol: Compound (I) and comparative compound (III) were evaluated in proof-of-concept studies in murine models for the treatment of a respiratory infection with Gram-negative bacteria of the order Enterobacterales, a bacteraemia or bloodstream infection with Gram-negative bacteria of the order Enterobacterales, and a urinary tract infection with Gram-negative bacteria of the order Enterobacterales. Each dot, triangle or square indicator represents a single mouse. LOD refers to the limit of detection of the bacteria. […] Each of the proof-of-concept studies was carried out separately. By vehicle is meant pharmaceutically acceptable carrier or excipient. For the proof-of-concept study for the treatment of a urinary tract infection with Enterobacterales, female C3H/HeN mice were infected with E. coli UT189. Twenty-four hours after infection (‘pre-treatment’ in FIGS. 4a-c), a vehicle (20% hydroxypropyl β cyclodextrin) containing no compound (I) or comparative compound (III), or a vehicle (20% hydroxypropyl β cyclodextrin) containing compound (I) or comparative compound (III), was administered by IV bolus of 20 mg/kg, TID (8 hrs apart), over 3 days.

[5] = tested on: E. coli BAA-2469 (NDM-1 positive); test: Murine bacteraemia / bloodstream infection proof-of-concept study, IV bolus; assay type: in vivo; details: single dose IV bolus 20 mg/kg, 9 h from initial infection
Protocol: Compound (I) and comparative compound (III) were evaluated in proof-of-concept studies in murine models for the treatment of a respiratory infection with Gram-negative bacteria of the order Enterobacterales, a bacteraemia or bloodstream infection with Gram-negative bacteria of the order Enterobacterales, and a urinary tract infection with Gram-negative bacteria of the order Enterobacterales. Each dot, triangle or square indicator represents a single mouse. LOD refers to the limit of detection of the bacteria. […] Each of the proof-of-concept studies was carried out separately. By vehicle is meant pharmaceutically acceptable carrier or excipient.
For the proof-of-concept study for the treatment of a bacteraemia or bloodstream infection with Gram-negative bacteria of the order Enterobacterales, CD-1 mice were infected with human urine isolate E. coli BAA-2469 (NDM-1 positive). One hour after infection (‘pre-treatment’ in FIG. 3), a vehicle (20% hydroxypropyl β cyclodextrin) containing no compound (I) or comparative compound (III), or a vehicle (20% hydroxypropyl β cyclodextrin) containing compound (I) or comparative compound (III), was administered by as a single dose IV bolus at 20 mg/kg.

[6] = Lipophilicity, Log P measured with SiriusT3 (octanol titration); assay type: physicochemical; details: octanol / aqueous sample solution
Protocol: Log P values of compound (I) and comparative compound (III) were measured using the SiriusT3 instrument from Sirius Analytical by performing an acid-based titration and measuring the shift in pKa when the sample solution is in contact with an immiscible solvent (octanol). Log P for the comparative compound (II) was calculated using Marvin (physico-chemical calculation software). The lipophilicity data for compound (I) and comparative compounds (II) and (III) was collected in separate experiments carried out on different days, and compared in Table 5.

| Structure (SMILES) | MIC [1] [µM] | Vd [2] [L/kg] | reduction of bacterial burden in the lung compared to vehicle ([3]; CD-1 mice, IV bolus 20 mg/kg TID over one day) [log] | CFU value in lung relative to stasis level ([3]; IV bolus 20 mg/kg TID) | reduction of bacterial burden in the bladder compared to vehicle [4] [log] | reduction of bacterial burden in the urine compared to vehicle ([4]; female C3H/HeN mice) [log] | reduction of bacterial burden in the blood compared to vehicle ([5]; CD-1 mice) [log] | bacterial burden (CFU) in the blood at end of study [5] | logP [6] |
| --- | --- | --- | --- | --- | --- | --- | --- | --- | --- |
| Cc1cc(-c2[nH]c(N)nc2-c2ccc3c(c2)N(C(=O)CN)CCO3)ccn1 [Comparative Compound (II)] | > 200 | 7.7 | – | – | – | – | – | – | – |
| Cc1cnccc1-c1[nH]c(N)nc1-c1ccc2c(c1)N(C(=O)CN)CCO2 [Comparative Compound (III), reference compound] | > 200 | 7.9 | 4.16 | remained relatively close to the stasis level | 3.71 | 3.36 | 4.86 | remained on or above the stasis level | 1.03 |
